The source made the active and inactive calls.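 The calls were made as follows: active = fitted curve reaches a 40% rise in fluorescent cells at or below the top valid dose; inactive = opposite-direction effect, or the rest.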
Assay: autofluorescent compounds in non-GFP fibroblasts, dose response, artefact control for X-chromosome reactivation project, imaging, mTEFS fibroblasts, cherry-pick (AID 743396);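 also: raw share of Hoechst-counted cells scored GFP positive without control normalization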
Conditions: mTEFS fibroblasts autofluorescence, GFP-channel imaging, 3 days
[1] = at 19.5 µM (top of the series), cells pretreated with 5-aza-dC

CCOC(=O)Nc1cc2c(c(N)n1)N=C(c1ccccc1)CN2
% fluorescent cells increase [1]: 0.925% (inactive)

Cc1noc(C)c1NC(=O)N[C@H]1CC[C@H](CC(=O)N2CCN(C)CC2)O[C@H]1CO
% fluorescent cells increase [1]: 0.024% (inactive)

CCOC(=O)C1CCN(c2c(NCc3ccc(C(=O)NC4CCCC4)cc3)c(=O)c2=O)CC1
% fluorescent cells increase [1]: 0% (inactive)

O=c1[nH]cnc2c1ncn2[C@H]1CC[C@@H](CO)O1
% fluorescent cells increase [1]: 0.722% (inactive)

Cn1c2ccccc2c2cnn(CC(=O)Nc3ccccc3Br)c(=O)c21
% fluorescent cells increase [1]: -0.007% (inactive)

C[C@H](NC(=O)C[C@H]1CC[C@@H](NC(=O)Cc2ccccn2)[C@@H](CO)O1)c1ccccc1
% fluorescent cells increase [1]: 0.008% (inactive)

CC(C)CCN1CCN(Cc2cc3ccccc3[nH]2)CC1CCO (centres undefined)
% fluorescent cells increase [1]: 0% (inactive)

COc1ccc(OC)c(/C=C/c2ccc3cccc(O)c3n2)c1
% fluorescent cells increase [1]: -0.004% (inactive)

COCCN(C(=S)Nc1cccc(C)c1)C(C)c1cccnc1 (centres undefined)
% fluorescent cells increase [1]: -0.004% (inactive)

COc1ccccc1N=Nc1c(C)[nH]n(-c2ccccc2)c1=O
% fluorescent cells increase [1]: 0% (inactive)

CCc1ccccc1OCC(=O)Nc1ccc(N2CCCC2)cc1C
% fluorescent cells increase [1]: 0.096% (inactive)

CCc1ccc(C(=O)NNc2ccc(S(N)(=O)=O)cc2)cc1
% fluorescent cells increase [1]: -0.004% (inactive)

Cc1ccc(/C=C/C(=O)N2CCN(S(=O)(=O)/C=C/c3ccccc3)CC2)o1
% fluorescent cells increase [1]: 0.017% (inactive)

COc1ccccc1NC(=S)N(CCCN1CCOCC1)Cc1cccs1
% fluorescent cells increase [1]: -0.007% (inactive)

CCOC(=O)c1ccccc1NC(=O)COC(=O)C1CCN(S(=O)(=O)c2ccccc2C(=O)OC)CC1
% fluorescent cells increase [1]: 0% (inactive)

COc1ccccc1N(C)c1cc2c(c3c1ccn3C)C1CCC2C1 (centres undefined)
% fluorescent cells increase [1]: 0.033% (inactive)

Cc1cc(=O)[nH]c(N/N=C/c2cc(C)n(CC(F)(F)F)c2C)n1
% fluorescent cells increase [1]: 0% (inactive)

CC(=O)C1=NN(c2ccc(Cl)cc2)C(c2ccc3c(c2)OCO3)N(C(C)=O)N1C (centres undefined)
% fluorescent cells increase [1]: -0.011% (inactive)

C[C@@H]1C[C@H]2[C@@H]3CCC4=CC(=O)C=C[C@]4(C)[C@@]3(F)[C@@H](O)C[C@]2(C)[C@H]1C(=O)CO
% fluorescent cells increase [1]: 0% (inactive)

O=C(c1ccc(Br)cc1)c1cc([N+](=O)[O-])ccc1N1CCOCC1
% fluorescent cells increase [1]: 4.03% (inactive)

C#Cc1cc(N2CCN(C(=O)c3ccoc3)CC2)n2nc(-c3cccc(Cl)c3)cc2n1
% fluorescent cells increase [1]: 7.21% (inactive)

COc1ccc(-c2ccc3[nH]c4c(c3c2)CCN2C(=O)[C@@H]([C@H](C)O)[C@@H](N(C)C(=O)Nc3ccc(F)cc3)C[C@@H]42)cc1
% fluorescent cells increase [1]: 10.8% (inactive)

CC(Sc1nnc(Cc2ccccc2)o1)C(=O)Nc1ccccc1[N+](=O)[O-] (centres undefined)
% fluorescent cells increase [1]: -0.011% (inactive)

COc1cccc2cc(C(=O)N(Cc3cccs3)CC3CCCO3)c(=O)oc12 (centres undefined)
% fluorescent cells increase [1]: 0.013% (inactive)

Cc1ccc2[nH]c(=S)n(-c3cccnc3)c(=O)c2c1
% fluorescent cells increase (at 19.5 µM (top of the series)): 0.016% (inactive)

Cc1ccc(C(=O)NCc2ccccn2)cc1NC1=NC2CS(=O)(=O)CC2S1 (centres undefined)
% fluorescent cells increase [1]: 0.061% (inactive)

COCCNC(=O)CSc1nc2scc(-c3ccccc3)c2c(=O)[nH]1
% fluorescent cells increase [1]: 0.106% (inactive)

CO[C@H](CN(C)C(=O)Nc1ccc(C(F)(F)F)cc1)[C@@H](C)CN(Cc1ccccc1Cl)[C@@H](C)CO
% fluorescent cells increase (at 21 µM (top of the series), cells pretreated with 5-aza-dC): 0% (inactive)

CC(C)(C)C1CCNC(=O)CC1 (centres undefined)
% fluorescent cells increase [1]: -0.007% (inactive)

Cc1[nH]c2ccccc2c1/C=N/Nc1nc2ccccc2[nH]1
% fluorescent cells increase [1]: 0% (inactive)

COc1ccc(Cl)cc1C(=O)Nc1ccccc1N1CCCCC1
% fluorescent cells increase [1]: 2.45% (inactive)

CCC(=O)N1CC(=O)N2[C@@H](CO)[C@@H](c3ccc(-c4ccccc4F)cc3)[C@@H]2C1
% fluorescent cells increase [1]: 0% (inactive)

CC(OCCN(C)C)C(=O)C12CC3CC(CC(C3)C1)C2 (centres undefined)
% fluorescent cells increase [1]: 0.039% (inactive)

O=C(CNC(=O)c1ccccc1F)OCc1nc2ccccc2s1
% fluorescent cells increase [1]: 0.037% (inactive)
